Reference: patent publication US9975849B1, “Gossypol l-arginine schiff base compound with antitumor activities and a method of preparing the same” (SHAANXI PANLONG PHARMACEUTICAL GROUP LIMITED BY SHARE LTD., priority 2017, dated 2018)
Like-named read-outs stand apart in the source and are kept apart here.

What was measured:
Format in all cases: cell-based
[1] = test system: human lung cancer cells (A-549); assay: MTT tumor cell proliferation inhibition test, A-549
Method: (§1) The compounds of the present invention were subjected to tumor cell proliferation inhibition test, and conventional MTT method was used.
(§2) Cell lines: human hepatoma cells (HepG2), human lung cancer cells (A-549), human gastric cancer cells (SGC-7901). The culture medium was DMEM+15% NBS+double antibody.
(§3) Sample solution preparation: after dissolving with DMSO (Merck), PBS (-) was added to obtain 100 μmol/L solution or homogeneous suspension. The solution was diluted with PBS (-) in DMSO to a final concentration of 0.1, 1, 10, 20, 40, 60, 80, 100 μmol/L.
(§4) Anti-uterine fibroids drug gossypol was used as control solution, prepared under the same condition.
(§5) Cell culture: adherent growth Tumor cells were cultured in 1640 medium containing 10% inactivated neonatal bovine serum and penicillin, streptomycin (1 million U/L), placed in carbon dioxide incubator at 37° C., 5% CO2, and saturated humidity. Cells were treated serially passaged 2-3 times. The first culture was washed with PBS 2 times, and digested with trypsin. Fresh culture medium was added evenly, cells were adjusted to a appropriate concentration and transferred into a new culture flask. […]
(§6) Experimental Principle: Living cells mitochondria in the dehydrogenase can reduce yellow MTT to water-insoluble blue-violet product MT (MTT formazan), deposited in the cells. […] DMSO can dissolve blue violet crystals, and the color depth is proportional to the amount contained, so the absorbance measured by the microplate reader can reflect the cell viability.
(§7) Methods: The exponential phase cells were digested and counted and seeded in 96-well plates at a density of 2×10^4/mL at 100 μl per well. […] After 48 hours, the supernatant was discarded, and 100 μl of MTT ((2-(4,5-dimethyl-2-thiazolyl)-3,5-diphenyl-2H-[…]) (1 mg/mL) was added to each well. After another 4 hours, the supernatant was discarded, and 100 μl of DMSO was added to each well. After mixing, the absorbance was measured at 570 nm using a microplate reader. An IC50 calculation software was used to determine the half inhibitory concentration (IC50).

[2] = test system: human hepatoma cells (HepG2); assay: MTT tumor cell proliferation inhibition test, HepG2; details: for IC50: Homo sapiens, read-out: Half Inhibitory Concentration IC50 HepG2
Method: as §1, §2, §3, §4, §5, §6, §7

[3] = test system: human gastric cancer cells (SGC-7901); assay: MTT tumor cell proliferation inhibition test, SGC-7901; details: for IC50: Homo sapiens, read-out: Half Inhibitory Concentration IC50 SGC-7901
Method: as §1, §2, §3, §4
Cell culture: adherent growth Tumor cells were cultured in 1640 medium containing 10% inactivated neonatal bovine serum and penicillin, streptomycin (1 million U/L), placed in carbon dioxide incubator at 37° C., 5% CO2, and saturated humidity. Cells were treated serially passaged 2-3 times. The first culture was washed with PBS 2 times, and digested with trypsin. Fresh culture medium was added evenly, cells were adjusted to a appropriate concentration and transferred into a new culture flask. Cell in an exponential phase were chosen for the tests.
MTT Assay for Cell Viability and IC50 Determination:
Experimental Principle: Living cells mitochondria in the dehydrogenase can reduce yellow MTT to water-insoluble blue-violet product MT (MTT formazan), deposited in the cells. The amount of production is proportional to the number of living cells. […] DMSO can dissolve blue violet crystals, and the color depth is proportional to the amount contained, so the absorbance measured by the microplate reader can reflect the cell viability.
Methods: The exponential phase cells were digested and counted and seeded in 96-well plates at a density of 2×10^4/mL at 100 μl per well. After 24 hours of incubation, the cells to be tested were treated with 0.1, 1, 10, 20, 40, 60, 80, 100 μmol/L of the compounds. Each experimental group had 5 wells in each concentration, and the culture medium containing 0.4% DMSO was used as control. After 48 hours, the supernatant was discarded, and 100 μl of MTT ((2-(4,5-dimethyl-2-thiazolyl)-3,5-diphenyl-2H-[…]) (1 mg/mL) was added to each well. After another 4 hours, the supernatant was discarded, and 100 μl of DMSO was added to each well. After mixing, the absorbance was measured at 570 nm using a microplate reader. An IC50 calculation software was used to determine the half inhibitory concentration (IC50).

Compound | antitumor activities (in words) ([1]; A549, one of the three cell lines tested) | IC50 ([1]; Homo sapiens, MTT, 48 hours treatment, A549, read-out: Half Inhibitory Concentration IC50 A549) | antitumor activities compared with gossypol ([1]; against A549) | antitumor activities (in words) ([2]; HepG2, one of the three cell lines tested) | IC50 ([2]; MTT, 48 hours treatment, HepG2) | IC50 ([3]; MTT, 48 hours treatment, SGC-7901) | antitumor activities (in words) ([3]; SGC-7901, one of the three cell lines tested) | antitumor activities compared with gossypol ([3]; against SCG-7901) | IC50 ([2]; HepG2, 48 h) | IC50 ([3]; SGC-7901, 48 h)
Cc1cc2c(C(C)C)c(O)c(O)c(/C=N\C(=N)NCCC[C@H](N)C(=O)O)c2c(O)c1-c1c(C)cc2c(C(C)C)c(O)c(O)c(/C=N/C(=N)NCCC[C@H](N)C(=O)O)c2c1O [Gossypol L-arginine Schiff base compound, gossypol L-arginine Schiff base compound] | excellent antitumor activities | 12.3 ± 0.69 µM | better antitumor activities than gossypol | excellent antitumor activities | 11.7 ± 0.32 µM | 9.37 ± 0.36 µM | excellent antitumor activities | better antitumor activities than gossypol |  | 
Cc1cc2c(C(C)C)c(O)c(O)c(C=O)c2c(O)c1-c1c(C)cc2c(C(C)C)c(O)c(O)c(C=O)c2c1O [Gossypol, gossypol] |  |  |  |  |  |  |  |  | 8.29 ± 0.28 µM | 18.2 ± 0.37 µM
